Assay results published in US8993768B2, “Tropolone compounds for treating or preventing retroviral infection” (The United States of America, as represented by the …, priority 2011, dated 2015).
Like-named read-outs stand apart in the source and are kept apart here.

Assays:
[1] = molecular target: T1, HIV-1 RNase H (p66/p51 HIV-1 RT) (Human immunodeficiency virus type 1 group M subtype B, UniProt P04585); experiment: High throughput RNase H assay on sequence-independent RNA/DNA hybrid; type: biochemical; details: HIV-1 RNase H enzymatic activity, sequence-independent RNA/DNA hybrid; read-out: In vitro IC50
T1 construct: RT is a p66/p51 heterodimer comprised of asymmetrically-organized subunits processed from the 165 kDa gag/pol polyprotein precursor; (His)6; made in house; host or cells: Escherichia coli
Method: IC50 values were determined as previously reported (Budihas, S. R., et al., Nucleic Acids Res., 33(4):1249-56 (2005)), using an 18-nucleotide 3′-flourescein-labeled RNA annealed to a complementary 18-nucleotide 5′-dabsyl-labeled DNA. […] The reaction was initiated by adding 1 μl of 100 mM MgCl2 to 9 μl of mixture containing 4 ng enzyme, 200 nM substrate, 20 μM α-hydroxytropolones in 50 mM Tris, pH 8.0, 80 mM KCl, 2 mM DTT, and 10% DMSO at 37° C., and quenched with 10 μl of a gel-loading buffer after 10 minutes. Hydrolysis products were fractionated by denaturing polyacrylamide gel electrophoresis and visualized by fluorescent imaging (Typhoon Trio+, GE Healthcare, Piscataway, N.J.). […]

HIV-1 RT RNase H = molecular target: T2, HIV-1 RT RNase H (Human immunodeficiency virus type 1 group M subtype B, UniProt P04585); experiment: Cleavage of the HIV-1 polypurine tract (PPT) primer, PPT/U3 junction; type: biochemical; details: 20 μM inhibitor
T2 construct: RT is a p66/p51 heterodimer comprised of asymmetrically-organized subunits processed from the 165 kDa gag/pol polyprotein precursor; (His)6; made in house; host or cells: Escherichia coli
Method: FIG. 2A depicts a schematic model of RNA/DNA substrate, indicating the RNase H cleavage site at the PPT/U3 junction (< >). The PPT is indicated by the shaded box. FIG. 2B depicts the quantification of PPT cleavage data. All inhibitors were evaluated at 20 μM.
IC50 values were determined as previously reported (Budihas, S. R., et al., Nucleic Acids Res., 33(4):1249-56 (2005)), using an 18-nucleotide 3′-flourescein-labeled RNA annealed to a complementary 18-nucleotide 5′-dabsyl-labeled DNA. […] The reaction was initiated by adding 1 μl of 100 mM MgCl2 to 9 μl of mixture containing 4 ng enzyme, 200 nM substrate, 20 μM α-hydroxytropolones in 50 mM Tris, pH 8.0, 80 mM KCl, 2 mM DTT, and 10% DMSO at 37° C., and quenched with 10 μl of a gel-loading buffer after 10 minutes. Hydrolysis products were fractionated by denaturing polyacrylamide gel electrophoresis and visualized by fluorescent imaging (Typhoon Trio+, GE Healthcare, Piscataway, N.J.).
Since the high-throughput RNase H assay examines non-specific, “polymerase-independent” RNase H activity defined by the spatial separation of the DNA polymerase and RNase H active site of HIV-1 RT (Gopalakrishnan, V., et al., Proc. Natl. Acad. Sci. USA, 89(22):10763-7 (1992)), an examination of whether α-hydroxytropolones altered cleavage specificity on a more biologically-relevant substrate, namely the polypurine tract (PPT) primer, which must be processed from the RNA/DNA replication intermediate to initiate (+) strand DNA synthesis.

p66^EQ/p51 HIV-1 RT = molecular target: T3, p66^EQ/p51 HIV-1 RT (Human immunodeficiency virus type 1 group M subtype B, UniProt P04585, E1065Q); experiment: DNA-dependent DNA polymerase assay, RNase H-deficient mutant p66EQ/p51; type: biochemical; details: 20 μM
T3 construct: RT is a p66/p51 heterodimer comprised of asymmetrically-organized subunits processed from the 165 kDa gag/pol polyprotein precursor; (His)6; made in house; host or cells: Escherichia coli
Method: (§1) DNA-dependent DNA synthesis was measured on a fluorescently-labeled duplex DNA prepared by annealing a 33-nt template, 5′-CACTGCTCAAGAAGTTCCAATCCTAAATACATA-3′ (SEQ ID NO: 3), to the 5′-Cy5-labeled primer 5′-ATGTATGGGTATGTATTTAGG-3′ (SEQ ID NO: 4). Polymerization was initiated by adding 1 μl of 2 mM dNTPs to 9 μl of mixture containing 4 ng enzyme, 200 nM substrate, 20 μM α-hydroxytropolones in 10 mM Tris, pH 7.8, 80 mM KCl, 1 mM DTT, 10 mM MgCl2, and 10% DMSO at 37° C. DNA synthesis was quenched with 10 μl of a gel-loading buffer after 10 minutes, and reaction products were analyzed by denaturing polyacrylamide gel electrophoresis and fluorescent imaging.
(§2) In order to examine the specificity of our manicol analogs, their effect on the DNA polymerase activity of wild type p66/p51 HIV-1 RT and RNase H-deficient derivatives was determined. In particular, RNase H-deficient strains p66^EQ/p51 and p66^DA/p51, were tested, which harbor mutations in one of the catalytically-critical amino acids contacted by manicol (E478 and D549, respectively), that would be predicted to interfere with α-hydroxytropolone binding.
(§3) Although crystallographic evidence is presently unavailable, compounds 5 and 10, thus appear capable of occupying a second site on HIV-1 RT.

p66^DA/p51 HIV-1 RT = molecular target: T4, p66^DA/p51 HIV-1 RT (Human immunodeficiency virus type 1 group M subtype B, UniProt P04585, D1136A); experiment: DNA-dependent DNA polymerase assay, RNase H-deficient mutant p66DA/p51; type: biochemical; details: 20 μM
T4 construct: RT is a p66/p51 heterodimer comprised of asymmetrically-organized subunits processed from the 165 kDa gag/pol polyprotein precursor; (His)6; made in house; host or cells: Escherichia coli
Method: as §1, §2, §3

[2] = tested on: HIV-1 virus strain RF in CEM-SS cells; experiment: HIV-1 cytopathicity assay; type: cell-based; details: for EC50: read-out: Virus Replication EC50
Method: This assay was conducted as previously reported (Weislow, O, S., et al., J. Natl. Cancer Inst., 81(8):577-86 (1989)). Samples were dissolved in DMSO at 10 mM and diluted to a final high concentration of 50 μM in the 96-well assay plate, with 2-fold dilutions made to a low concentration of about 0.78 μM. All samples were tested in duplicate. The HIV-1 virus strain RF was used to infect CEM-SS cells. Compound cytotoxicity was measured in the same assay plate using uninfected cells. Regression analysis was used to estimate the effective concentration (EC50) as well as the cytotoxic concentration (CC50).

uninfected CEM-SS cells = experiment: Compound cytotoxicity in uninfected cells (same assay plate); type: cell-based
Method: (§4) All samples were tested in duplicate. The HIV-1 virus strain RF was used to infect CEM-SS cells. Compound cytotoxicity was measured in the same assay plate using uninfected cells. Regression analysis was used to estimate the effective concentration (EC50) as well as the cytotoxic concentration (CC50).

[3] = as above; type: cell-based; details: human, uninfected CEM-SS cells; read-out: Virus Replication CC50
Method: as §4

[4] = molecular target: T1, HIV-1 RNase H (p66/p51 HIV-1 RT); details: background, previously demonstrated; cited from earlier work
[5] = tested on: HIV-1 virus strain RF in CEM-SS cells; details: background, previous finding; cited from earlier work

Structure (SMILES) | IC50 [1] [µM] | inhibition of PPT/U3 cleavage (in words) (HIV-1 RT RNase H) | effect on DNA-dependent DNA polymerase activity (p66^EQ/p51 HIV-1 RT) | effect on DNA-dependent DNA polymerase activity (p66^DA/p51 HIV-1 RT) | protection against the cytopathic effect of the virus (in words) ([2]; HIV-1 RF) | EC50 ([2]; HIV-1 RF) [µM] | CC50 (uninfected CEM-SS cells) [µM] | EC50 ([2]; Human immunodeficiency virus 1, CEM-SS, HIV-1 RF) [µM] | CC50 [3] [µM] | EC50 ([2]; Human immunodeficiency virus 1, HIV-1 RF) [µM] | inhibition of RNase H activity of HIV RT in vitro [4] | reduction of virus replication in culture [5]
Cc1cc(O)c(=O)c(O)c2c1CC(C(C)(O)C[S+]([O-])Cc1ccccc1)CC2 (stereo not shown) [Compound 10, 2-(2-Benzylsulfinyl-1-hydroxy-1-methyl-ethyl)-5,7-dihydroxy-9-methyl-1,2,3,4-tetrahydrobenzocyclohepten-6-one] | 1.5 | less active | significantly and consistently inhibited | significantly and consistently inhibited | showed protection | 14.5 | > 50 |  |  |  |  | 
Cc1cc(O)c(=O)c(O)c2c1CC(C(C)(O)CNc1ccccc1)CC2 (mixture of isomers) [Compound 5, 5,7-Dihydroxy-2-(1-hydroxy-1-methyl-2-phenylamino-ethyl)-9-methyl-1,2,3,4-tetrahydrobenzocyclohepten-6-one] | 1.2 | more active in blocking PPT/U3 cleavage | significantly and consistently inhibited | significantly and consistently inhibited | showed protection |  |  | 7.4 | 31.7 |  |  | 
C=C(C)[C@H]1CCc2c(c(C)cc(O)c(=O)c2O)C1 [Manicol, 5,7-dihydroxy-2-isopropenyl-9-methyl-1,2,3,4-tetrahydro-benzocyclohepten-6-one, reference compound] |  |  |  |  | no protection |  |  |  | 13.6 | 13.6 | potently and specifically inhibit | ineffective
